Experimental data as given in US11091479B2, “Triazolopyridin-3-ones or their salts and pharmaceutical compositions comprising the same” (YUHAN CORPORATION, priority 2018, dated 2021).
Structures can show the parent of a compound that is named as a salt.

Columns and labels:
Type in all cases: biochemical
[1] = molecular target: T1, recombinant human VAP-1 (Homo sapiens, UniProt Q16853); experiment: Activity on recombinant human VAP-1, HRP-coupled Amplex Red hydrogen peroxide assay, benzylamine substrate; details: 30 min incubation at 37° C., 1 mM benzylamine, read-out: Inhibitory Activity (IC50, nM) human VAP-1
T1 construct: purchased R&D systems
T1 sequence (Q16853 1-763): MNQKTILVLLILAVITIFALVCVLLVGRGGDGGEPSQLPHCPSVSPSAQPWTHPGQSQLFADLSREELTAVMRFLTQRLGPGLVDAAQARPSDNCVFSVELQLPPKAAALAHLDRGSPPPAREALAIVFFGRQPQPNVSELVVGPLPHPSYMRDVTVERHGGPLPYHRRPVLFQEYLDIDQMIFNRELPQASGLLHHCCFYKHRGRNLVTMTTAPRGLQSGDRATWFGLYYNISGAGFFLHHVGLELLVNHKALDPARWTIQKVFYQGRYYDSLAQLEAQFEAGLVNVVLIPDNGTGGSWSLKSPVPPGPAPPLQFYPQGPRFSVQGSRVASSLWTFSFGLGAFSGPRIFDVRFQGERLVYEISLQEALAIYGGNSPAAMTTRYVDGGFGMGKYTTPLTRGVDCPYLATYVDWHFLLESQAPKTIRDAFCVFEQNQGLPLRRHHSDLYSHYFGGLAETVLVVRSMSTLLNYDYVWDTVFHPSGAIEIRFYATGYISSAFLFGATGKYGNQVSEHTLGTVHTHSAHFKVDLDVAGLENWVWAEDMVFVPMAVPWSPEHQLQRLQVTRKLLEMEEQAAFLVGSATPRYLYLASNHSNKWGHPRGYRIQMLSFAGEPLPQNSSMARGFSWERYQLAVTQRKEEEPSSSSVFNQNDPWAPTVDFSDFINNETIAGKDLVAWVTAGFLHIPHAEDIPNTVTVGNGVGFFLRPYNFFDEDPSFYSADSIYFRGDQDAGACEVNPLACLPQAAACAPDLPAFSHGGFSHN
Protocol: (§1) The compounds according to the present technology were evaluated in terms of activity on recombinant human VAP-1 (R&D systems) by measuring the level of hydrogen peroxide in horseradish peroxidase (HRP)-coupled reaction using Amplex Red Hydrogen Peroxide Assay Kit (Molecular Probes, Invitrogen, USA). The experiment was carried out at room temperature using benzylamine as a substrate. In the HRP-coupled reaction, hydrogen peroxide oxidation of 10-acetyl-3,7-dihydroxyphenoxazine (Amplex Red reagent) produces resorufin, which is a highly fluorescent compound. Briefly, the test compound was dissolved in dimethyl sulfoxide (DMSO) at a concentration of 20 mM. The dose-response assessment was made by 1:3 serial dilution in DMSO, thereby creating a 8 point curve. The concentration of the upper part was controlled according to the efficacy of the compounds, followed by dilution with a reaction buffer solution to obtain a final DMSO concentration of less than 1%. To each well of a 96 black well plate, human VAP-1 purified in 50 mM sodium phosphate buffer solution (pH7.4) was added. The test compounds dissolved in DMSO were incubated with the human VAP-1 enzymes at 37° C. for 30 minutes. After 30-minute incubation, each well was added with a reaction mixture containing 200 uM Amplex Red reagent prepared from 50 mM sodium phosphate buffer solution (pH 7.4), 1 mM benzylamine, and 1 U/mL HRP. Fluorescence intensity was measured at several time points during 1-2 hours using a microplate reader (Flexstation3, Molecular Devices) under the wavelength condition exciting at 544 nm and reading the emission at 590 nm. The inhibitory effect of the compounds was measured as a decrease (%) in the signal rate as compared to the control group without any inhibitor (only diluted DMSO). Data was fixed to a logistic model with four variables and IC50 value was calculated using GraphPad Prism program.

[2] = molecular target: T2, recombinant human MAO-A (monoamine oxidase-A) (Homo sapiens, UniProt P21397); experiment: Activity on recombinant human MAO-A, method similar to VAP-1 assay, 0.5 mM tyramine substrate; details: read-out: Inhibitory Activity (IC50, nM) MAO-A
T2 construct: purchased Sigma-Aldrich
T2 sequence (P21397 1-527): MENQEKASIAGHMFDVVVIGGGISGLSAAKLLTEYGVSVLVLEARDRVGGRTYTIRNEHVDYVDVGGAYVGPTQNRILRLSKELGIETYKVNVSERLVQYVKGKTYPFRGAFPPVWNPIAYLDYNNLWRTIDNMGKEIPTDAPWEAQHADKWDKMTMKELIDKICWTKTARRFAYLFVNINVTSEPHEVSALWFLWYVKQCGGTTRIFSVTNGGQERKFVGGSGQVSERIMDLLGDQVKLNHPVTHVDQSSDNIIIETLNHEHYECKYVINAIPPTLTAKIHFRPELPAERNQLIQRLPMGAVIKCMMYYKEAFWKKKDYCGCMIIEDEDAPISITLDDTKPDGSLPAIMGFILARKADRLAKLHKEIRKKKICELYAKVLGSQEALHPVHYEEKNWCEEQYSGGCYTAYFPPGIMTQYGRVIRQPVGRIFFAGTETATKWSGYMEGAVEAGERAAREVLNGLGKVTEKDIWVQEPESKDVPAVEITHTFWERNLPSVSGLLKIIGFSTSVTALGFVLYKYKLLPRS
Protocol: as §1
(§2) In addition, the compounds according to the present technology were evaluated in terms of activity on a recombinant human MAO-A (monoamine oxidase-A, Sigma-Aldrich) and a recombinant human MAO-B(monoamine oxidase-B, Sigma-Aldrich) by using as substrates, 0.5 mM tyramine and 1 mM benzylamine, respectively, with a method similar to the activity evaluation method for recombinant human VAP-1. The compounds according to the present technology were also evaluated in terms of activity on a recombinant human DAO (diamine oxidase, R&D systems) by using as a substrate 1 mM putrescine with a method similar to the activity evaluation method for recombinant human VAP-1.

[3] = molecular target: T3, recombinant human MAO-B (monoamine oxidase-B) (Homo sapiens, UniProt P27338); experiment: Activity on recombinant human MAO-B, method similar to VAP-1 assay, 1 mM benzylamine substrate; details: read-out: Inhibitory Activity (IC50, nM) MAO-B
T3 construct: purchased Sigma-Aldrich
T3 sequence (P27338 1-520): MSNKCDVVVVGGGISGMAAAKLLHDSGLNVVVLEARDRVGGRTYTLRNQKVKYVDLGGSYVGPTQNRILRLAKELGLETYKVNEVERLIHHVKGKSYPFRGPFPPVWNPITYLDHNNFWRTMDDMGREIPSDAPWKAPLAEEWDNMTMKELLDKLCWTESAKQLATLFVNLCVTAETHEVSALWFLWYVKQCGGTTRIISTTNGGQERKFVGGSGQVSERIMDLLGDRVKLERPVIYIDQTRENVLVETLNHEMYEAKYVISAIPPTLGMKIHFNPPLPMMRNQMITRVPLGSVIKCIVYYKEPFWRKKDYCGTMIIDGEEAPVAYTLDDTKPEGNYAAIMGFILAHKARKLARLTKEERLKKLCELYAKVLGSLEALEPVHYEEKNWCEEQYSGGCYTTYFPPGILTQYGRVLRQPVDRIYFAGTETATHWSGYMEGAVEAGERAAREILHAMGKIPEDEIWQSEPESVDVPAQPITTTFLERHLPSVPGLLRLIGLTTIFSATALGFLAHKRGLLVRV
Protocol: as §1, §2

[4] = molecular target: T4, recombinant human DAO (diamine oxidase) (Homo sapiens, UniProt P19801); experiment: Activity on recombinant human DAO, method similar to VAP-1 assay, 1 mM putrescine substrate; details: read-out: Inhibitory Activity (IC50, nM) DAO
T4 construct: purchased R&D systems
T4 sequence (P19801 20-751): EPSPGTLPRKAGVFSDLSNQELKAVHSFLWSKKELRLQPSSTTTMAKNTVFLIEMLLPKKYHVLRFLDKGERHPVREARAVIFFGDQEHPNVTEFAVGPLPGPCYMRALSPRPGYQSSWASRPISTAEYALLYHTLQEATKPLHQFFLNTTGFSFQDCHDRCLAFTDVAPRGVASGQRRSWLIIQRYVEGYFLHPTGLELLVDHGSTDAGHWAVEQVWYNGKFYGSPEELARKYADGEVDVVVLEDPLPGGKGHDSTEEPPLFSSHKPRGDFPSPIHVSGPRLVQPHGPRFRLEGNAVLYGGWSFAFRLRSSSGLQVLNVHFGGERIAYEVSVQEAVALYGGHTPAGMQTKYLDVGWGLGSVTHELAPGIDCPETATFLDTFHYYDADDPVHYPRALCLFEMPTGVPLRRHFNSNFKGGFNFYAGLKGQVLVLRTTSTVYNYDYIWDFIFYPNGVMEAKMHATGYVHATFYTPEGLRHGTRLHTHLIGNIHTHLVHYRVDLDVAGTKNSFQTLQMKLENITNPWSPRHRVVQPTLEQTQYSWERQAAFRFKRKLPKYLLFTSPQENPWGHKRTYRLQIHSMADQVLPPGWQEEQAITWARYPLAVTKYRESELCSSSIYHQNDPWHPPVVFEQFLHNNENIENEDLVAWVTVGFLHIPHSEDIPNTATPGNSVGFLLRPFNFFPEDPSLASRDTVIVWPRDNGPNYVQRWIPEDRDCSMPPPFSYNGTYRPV
Protocol: as §1, §2

Row | Compound | IC50 [1] | IC50 [2] | IC50 [3] | IC50 [4]
1 | NC/C(=C\F)Cn1nc2ccc(-c3ccc(-c4nc[nH]n4)cc3)cn2c1=O [Example 5, 2-[(2E)-2-(aminomethyl)-3-fluoroprop-2-en-1-yl]-6-[4-(1H-1,2,4-triazol-3-yl)phenyl][1,2,4]triazolo[4,3-a]pyridin-3(2H)-one trifluoroacetate] | 2 nM | > 100000 nM | 1450 nM | < 100 nM
2 | CN1CCOc2cc(-c3ccn4c(=O)n(C/C(=C/F)CN)nc4c3)ccc21 [Example 44, 2-[(2E)-2-(aminomethyl)-3-fluoroprop-2-en-1-yl]-7-(4-methyl-3,4-dihydro-2H-1,4-benzoxazin-7-yl)[1,2,4]triazolo[4,3-a]pyridin-3(2H)-one hydrochloride] | 1 nM | > 100000 nM | < 10 nM | 400 nM
3 | NC/C(=C\F)Cn1nc2cc(-c3cccc(-c4cc[nH]n4)c3)ccn2c1=O [Example 26, 2-[(2E)-2-(aminomethyl)-3-fluoroprop-2-en-1-yl]-7-[3-(1H-pyrazol-3-yl)phenyl][1,2,4]triazolo[4,3-a]pyridin-3(2H)-one hydrochloride] | 0.2 nM | > 100000 nM | < 10 nM | 1.9 nM
4 | CN1CCOc2cc(C#Cc3ccn4c(=O)n(CC(CN)=C(F)F)nc4c3)ccc21 [Example 63, 2-[2-(aminomethyl)-3,3-difluoro-allyl]-7-[2-(4-methyl-2,3-dihydro-1,4-benzoxazin-7-yl)ethynyl]-[1,2,4]triazolo[4,3-a]pyridin-3-one trifluoroacetate] | 2.2 nM | > 100000 nM | > 100000 nM | 320 nM
5 | NC/C(=C\F)Cn1nc2ccc(-c3ccc(S(=O)(=O)N4CCOCC4)cc3)cn2c1=O [Example 4, 2-[(2E)-2-(aminomethyl)-3-fluoroprop-2-en-1-yl]-6-[4-(morpholin-4-ylsulfonyl)phenyl][1,2,4]triazolo[4,3-a]pyridin-3(2H)-one trifluoroacetate] | 6.2 nM | > 100000 nM | > 10000 nM | < 100 nM
6 | CN(C)c1ccc(C#Cc2ccn3c(=O)n(CC(CN)=C(F)F)nc3c2)cn1 [Example 57, 2-[2-(aminomethyl)-3,3-difluoro-allyl]-7-[2-[6-(dimethylamino)-3-pyridyl]ethynyl]-[1,2,4]triazolo[4,3-a]pyridin-3-one trifluoroacetate] | 0.3 nM | > 100000 nM | 6200 nM | 120 nM
7 | CC(=O)Nc1ccc(-c2ccc3nn(C/C(=C/F)CN)c(=O)n3c2)cc1 [Example 2, N-[4-[2-[(2E)-2-(aminomethyl)-3-fluoroprop-2-en-1-yl]-3-oxo-2,3-dihydro[1,2,4]triazolo[4,3-a]pyridin-6-yl]phenyl]acetamide trifluoroacetate] | 6.2 nM | 68400 nM | 1780 nM | < 100 nM
8 | Cc1cc(-c2ccn3c(=O)n(CC(CN)=C(F)F)nc3c2)cc2c1NC(=O)CC2 [Example 53, 6-[2-[2-(aminomethyl)-3,3-difluoro-allyl]-3-oxo-[1,2,4]triazolo[4,3-a]pyridin-7-yl]-8-methyl-3,4-dihydro-1H-quinolin-2-one trifluoroacetate] | 0.2 nM | > 100000 nM | 320 nM | 12 nM
9 | NC/C(=C\F)Cn1nc2ccc(-c3ccc(C(F)(F)F)nc3)cn2c1=O [Example 9, 2-[(2E)-2-(aminomethyl)-3-fluoroprop-2-en-1-yl]-6-[6-(trifluoromethyl)pyridin-3-yl][1,2,4]triazolo[4,3-a]pyridin-3(2H)-one hydrochloride] | 12 nM | > 100000 nM | 37 nM | 0.2 nM
10 | NC/C(=C\F)Cn1nc2cc(-c3c[nH]c4ncccc34)ccn2c1=O [Example 35, 2-[(2E)-2-(aminomethyl)-3-fluoroprop-2-en-1-yl]-7-(1H-pyrrolo[2,3-b]pyridin-3-yl)[1,2,4]triazolo[4,3-a]pyridin-3(2H)-one hydrochloride] | 0.2 nM | > 100000 nM | 24 nM | 0.5 nM
